What was measured:
S. pneumoniae serotype 1 = test system: S. pneumoniae serotype 1; parameters: species or system mice; settings: mouse, in vivo
iNKT cells = assay: Analysis of lung iNKT cell activation (intracellular IFN-γ, flow cytometry); format: in vivo, mice; settings: lung iNKT cells of IAV-experienced animals (day 7 post-IAV) compared with naïve animals; i.n. administration
S. pneumoniae = settings: exogenous activation of lung iNKT cells; high dose of bacteria; no previous influenza; cited from earlier work

## CCCCCCCCCCCCCCCCCCCCCCCCCC(=O)N[C@@H](CO[C@H]1O[C@H](CO)[C@H](O)[C@H](O)[C@H]1O)[C@H](O)[C@H](O)CCCCCCCCCCCCCC [α-GalCer, α-galactosylceramide]
S. pneumoniae serotype 1
  protection against S. pneumoniae challenge, as assessed by the enhanced survival rate: ~70%
iNKT cells
  iNKT cell activation (IFN-γ production) in response to α-GalCer: leads to iNKT cell activation
S. pneumoniae
  clearance of S. pneumoniae: leads to the clearance of S. pneumoniae
